Laboratory results taken from US8871719B2, “Modified MELK peptides and vaccines containing the same” (OncoTherapy Science, Inc., priority 2010, dated 2014).
Entries after “also recorded” stand apart in the source; their conditions may differ.

Assays:
[1] = system: peptide-pulsed A24LCL cells; experiment: In vitro CTL induction, IFN-gamma ELISPOT assay; assay type: cell-based, human; conditions: for IFN-gamma production of CTLs (ELISPOT): target cells pulsed with cognate peptide vs not pulsed; for Immunogenicity compared to MELK-A24-9-87_WT: CTL induction from donors B and C; for CTL inducibility / CTL activity: in vitro stimulation of T-cells by peptide-loaded DCs
Excerpt: Monocyte-derived dendritic cells (DCs) were used as antigen-presenting cells (APCs) to induce cytotoxic T lymphocyte (CTL) responses against peptides presented on HLA. DCs were generated in vitro as described elsewhere (Nakahara S et al., Cancer Res 2003 Jul. 15, 63(14): 4112-8). Specifically, peripheral blood mononuclear cells (PBMCs) isolated from three healthy donors termed donors A, B and C (HLA-A*2402 positive) by Ficoll-Plaque (Pharmacia) solution were separated by adherence to a plastic tissue culture dish (Becton Dickinson) so as to enrich them as the monocyte fraction. The monocyte-enriched population was cultured in the presence of 1,000 U/ml of granulocyte-macrophage colony-stimulating factor (GM-CSF) (R&D System) and 1,000 U/ml of interleukin (IL)-4 (R&D System) in AIM-V Medium (Invitrogen) containing 2% heat-inactivated autologous serum (AS). After 7 days of culture, the cytokine-induced DCs were pulsed with 20 micro-g/ml of each of the synthesized peptides in the presence of 3 micro-g/ml of beta2-microglobulin for 3 hrs at 37 degrees C. in AIM-V Medium. The generated cells appeared to express DC-associated molecules, such as CD80, CD83, CD86 and HLA class II, on their cell surfaces (data not shown). These peptide-pulsed DCs were then inactivated by X-irradiation (20 Gy) and mixed at a 1:20 ratio with autologous CD8+ T cells, obtained by positive selection with CD8 Positive Isolation Kit (Dynal). These cultures were set up in 48-well plates (Corning); each well contained 1.5×10^4 peptide-pulsed DCs, 3×10^5 CD8+ T cells and 10 ng/ml of IL-7 (R&D System) in 0.5 ml of AIM-V/2% AS medium. 3 days later, these cultures were supplemented with IL-2 (CHIRON) to a final concentration of 20 IU/ml. On days 7 and 14, the T cells were further stimulated with the autologous peptide-pulsed DCs. The DCs were prepared each time by the same way described above. CTLs were tested against peptide-pulsed A24LCL cells after the 3rd round of peptide stimulation on day 21 (Tanaka H et al., Br J Cancer 2001 Jan. 5, 84(1): 94-9; Umano Y et al., Br J Cancer 2001 Apr. 20, 84(8): 1052-7; Uchida N et al., Clin Cancer Res 2004 Dec. 15, 10(24): 8577-86; Suda T et al., Cancer Sci 2006 May, 97(5): 411-9; Watanabe T et al., Cancer Sci 2005 August, 96(8): 498-506).
(§1) Specifically, peptide-pulsed A24LCL (1×10^4/well) and tumor cell lines (5×10^4/well) were prepared as stimulator cells. Cultured cells in 48 wells, CTL lines and clones were used as responder cells. IFN-gamma ELISPOT assay and IFN-gamma ELISA assay were performed under manufacture procedure.

[2] = system: peptide-pulsed A24LCL cells; experiment: CTL lines, IFN-gamma ELISA assay; assay type: cell-based, human
Procedure: CTLs were expanded in culture using the method similar to the one described by Riddell et al. (Walter E A et al., N Engl J Med 1995 Oct. 19, 333(16): 1038-44; Riddell S R et al., Nat Med 1996 Feb. 2(2): 216-23). A total of 5×10^4 CTLs were suspended in 25 ml of AIM-V/5% AS medium with 2 kinds of human B-lymphoblastoid cell lines, inactivated by MMC, in the presence of 40 ng/ml of anti-CD3 monoclonal antibody (Pharmingen). One day after initiating the cultures, 120 IU/ml of IL-2 were added to the cultures. The cultures were fed with fresh AIM-V/5% AS medium containing 30 IU/ml of IL-2 on days 5, 8 and 11 (Tanaka H et al., Br J Cancer 2001 Jan. 5, 84(1): 94-9; Umano Y et al., Br J Cancer 2001 Apr. 20, 84(8): 1052-7; Uchida N et al., Clin Cancer Res 2004 Dec. 15, 10(24): 8577-86; Suda T et al., Cancer Sci 2006 May, 97(5): 411-9; Watanabe T et al., Cancer Sci 2005 August, 96(8): 498-506).
as §1

[3] = system: peptide-pulsed A24LCL cells; experiment: CTL clones, IFN-gamma ELISA assay; assay type: cell-based, human; conditions: for IFN-gamma production of CTL clones (ELISA): donor B
Procedure: The dilutions were made to have 0.3, 1, and 3 CTLs/well in 96 round-bottomed micro titer plate (Nalge Nunc International). CTLs were cultured with 1×10^4 cells/well of 2 kinds of human B-lymphoblastoid cell lines, 30 ng/ml of anti-CD3 antibody, and 125 U/ml of IL-2 in a total of […] of AIM-V Medium containing 5% AS. 50 micro-1/well of IL-2 were added to the medium 10 days later so to reach a final concentration of 125 U/ml IL-2. CTL activity was tested on the 14th day, and CTL clones were expanded using the same method as described above (Uchida N et al., Clin Cancer Res 2004 Dec. 15, 10(24): 8577-86; Suda T et al., Cancer Sci 2006 May, 97(5): 411-9; Watanabe T et al., Cancer Sci 2005 August, 96(8): 498-506).
as §1

[4] = system: tumor cell lines MDA-MB-4355 (MELK+, A24+) and KLM-1 (MELK+, A24+); experiment: Specific CTL activity against tumor cell lines expressing MELK and HLA-A*2402; assay type: cell-based, human; conditions: for IFN-gamma production / CTL activity of CTL clone against KLM-1: KLM-1 (MELK+, A24+) compared with KP-1N
Procedure: (§2) TISI, human leukocyte antigen (HLA)-A*2402 positive B-lymphoblastoid cell line, was purchased from the IHWG Cell and Gene Bank (Seattle, Wash.). COS7, MDA-MB-435S and T47D were purchased from ATCC. KLM-1 and KP-1N were purchased from RIKEN cell bank and JCRB cell bank, respectively.
as §1

[5] = system: COS7 cells transfected with MELK and HLA-A*2402; experiment: Specific CTL activity against transfected COS7 cells; assay type: cell-based
Procedure: as §1
The cDNA encoding an open reading frame of target gene or HLA-A*2402 was amplified by PCR. The PCR-amplified products were cloned into pCAGGS vector. The plasmids were transfected into COST, which is the target genes and HLA-A24 negative cell line, using lipofectamine 2000 (Invitrogen) according to the manufacturer's recommended procedures. After 2 days from transfection, the transfected cells were harvested with versene (Invitrogen) and used as stimulator cells (5×10^4 cells/well) for CTL activity assay.

[6] = system: T47D (MELK+, A24−) and KP-1N (MELK+, A24−); experiment: Specific CTL activity against tumor cell lines expressing MELK but not HLA-A*2402; assay type: cell-based, human; conditions: T47D and KP-1N (MELK+, A24−)
Procedure: as §2, §1

[7] = donor A, target cells pulsed with cognate peptide vs without peptide pulse
[8] = donor B, target cells pulsed with MELK-A24-9-87_WT vs irrelevant HIV peptide
[9] = target cells pulsed with MELK-A24-9-87_WT vs irrelevant HIV peptide
[10] = donor C, target cells pulsed with MELK-A24-9-87_WT vs irrelevant HIV peptide

| Sequence | IFN-gamma production of CTL lines (ELISA) [2, 7] | Immunogenicity compared to MELK-A24-9-87_WT [1] | IFN-gamma production of CTLs (ELISPOT) ([1]; donor B) | CTL inducibility / CTL activity [1] | IFN-gamma production of CTL lines (ELISA) [2, 8] | IFN-gamma production of CTL clones (ELISA) [3, 9] | other results |
| --- | --- | --- | --- | --- | --- | --- | --- |
| TANKIFMVL [SEQ ID NO: 21] |  |  |  |  |  |  | IFN-gamma production of CTLs (ELISPOT) ([1]; donor A, listed as MELK-A24-9-78): potent IFN-gamma production; also recorded: potential IFN-gamma productive ability |
| LYVLMCGFL [SEQ ID NO: 1] | potent IFN-gamma production |  |  |  |  |  | IFN-gamma production of CTLs (ELISPOT) ([1]; donor A, listed as MELK-A24-9-199): potent IFN-gamma production; also recorded: potential IFN-gamma productive ability; IFN-gamma production of CTL clone (ELISA) ([3]; donor A, target cells pulsed with cognate peptide vs not pulsed, listed as MELK-A24-9-199): potent IFN-gamma production; also recorded: had the ability to recognize the peptide-pulsed target cells; IFN-gamma production / CTL activity of CTL clone against KLM-1 [4]: no IFN-gamma production |
| KYCPGGELF [MELK-A24-9-87_1K] |  | superior immunogenicity | potent IFN-gamma production; also recorded: potential IFN-gamma productive ability | significant and specific CTL activity; also recorded: CTLs were successfully established | potent IFN-gamma production | potent IFN-gamma production | CTL inducibility / CTL activity ([1]; listed as 35): particularly strong CTL inducibility |
| EYCPGGELF [MELK-A24-9-87_WT] | potent IFN-gamma production |  | no specific IFN-gamma production was detected; also recorded: peptide specific IFN-gamma production was not detected | significant and specific CTL activity |  |  | IFN-gamma production of CTLs (ELISPOT) ([1]; donor A): potent IFN-gamma production; also recorded: potential IFN-gamma productive ability; IFN-gamma production of CTL lines (ELISA) [2, 10]: no IFN-gamma production; also recorded: CTL line was not established; IFN-gamma production of CTL clone (ELISA) ([3]; donor A, target cells pulsed with cognate peptide vs not pulsed): potent IFN-gamma production; Specific CTL activity of CTL clone against controls ([5]; COS7 cells expressing either HLA-A*2402 or MELK): no significant specific CTL activity; Specific CTL activity of CTL clone ([5]; COS7 cells transfected with both MELK and HLA-A*2402): potent CTL activity; also recorded: specific CTL activity |
| EYCPGGNLF [MELK-A24-9-87_7N] |  | superior immunogenicity | potent IFN-gamma production; also recorded: potential IFN-gamma productive ability | significant and specific CTL activity; also recorded: CTLs were successfully established | potent IFN-gamma production | potent IFN-gamma production | IFN-gamma production of CTLs (ELISPOT) ([1]; donor C): potent IFN-gamma production; also recorded: potential IFN-gamma productive ability; CTL inducibility / CTL activity ([1]; listed as 44): particularly strong CTL inducibility; IFN-gamma production of CTL lines (ELISA) [2, 10]: peptide specific IFN-gamma production; also recorded: IFN-gamma production was detected; IFN-gamma production of CTL clone (ELISA) [3, 10]: potent IFN-gamma production; IFN-gamma production / CTL activity of CTL clone against KLM-1 [4]: specific CTL activity; CTL activity of CTL line against tumor cell lines ([4]; MDA-MB-4355 and KLM-1 (MELK+, A24+)): potent CTL activity; also recorded: specific CTL activity; CTL activity of CTL line against tumor cell lines [6]: without showing CTL activity |
| DYIISQDRL [SEQ ID NO: 2] |  |  |  |  |  |  | IFN-gamma production of CTLs (ELISPOT) ([1]; donor A, listed as MELK-A24-9-96): typical negative data; also recorded: specific IFN-gamma production was not shown |
| EYMPGGELF [MELK-A24-9-87_3M] |  | superior immunogenicity | potent IFN-gamma production; also recorded: potential IFN-gamma productive ability | significant and specific CTL activity; also recorded: CTLs were successfully established | potent IFN-gamma production | potent IFN-gamma production | CTL inducibility / CTL activity ([1]; listed as 41): particularly strong CTL inducibility |
| VYKRLVEDIL [SEQ ID NO: 23] | potent IFN-gamma production |  |  | significant and specific CTL activity |  |  | IFN-gamma production of CTLs (ELISPOT) ([1]; donor A, listed as MELK-A24-10-637): potent IFN-gamma production; also recorded: potential IFN-gamma productive ability |
